# In ChEMBL document CHEMBL3994648, “Design and synthesis of a novel series of 4-heteroarylamino-1'-azaspiro[oxazole-5,3'-bicyclo[2.2.2]octanes as α7 nicotinic receptor agonists 2. Development of 4-heteroaryl SAR” (Bioorg Med Chem Lett, 2017):
# How the values were obtained:
# [1] = Plasma concentration in mouse at 0.3 mg/kg, po after 30 mins; type: ADME, organism-based
# [2] = Drug uptake in mouse brain at 0.3 mg/kg, po after 30 mins; type: ADME, organism-based; details: read-out: Drug uptake
compound,measurement,setting,value
c1ccc(-c2cc(NC3=NC[C@@]4(CN5CCC4CC5)O3)ncn2)cc1,concentration at 0.5 h,[1],273 nM
same,concentration at 0.5 h,[2],81 nM
